Laboratory results from ChEMBL document CHEMBL1146192, “Substituted chromones and quinolones as potent melanin-concentrating hormone receptor 1 antagonists” (Bioorg Med Chem Lett, 2006).

What was measured:
Format in all cases: ADME, organism-based
[1] = Volume of distribution in Sprague-Dawley rat at 2.5 mg/kg, iv and 10 mg/kg, po; details: in vivo, read-out: Vdss
[2] = AUC in Sprague-Dawley rat at 10 mg/kg, po; parameters: dose 10 mg/kg, route oral; details: plasma
[3] = Oral bioavailability in Sprague-Dawley rat at 2.5 mg/kg, iv and 10 mg/kg, po; details: in vivo
[4] = Ratio of drug level in Sprague-Dawley rat brain against plasma at 2.5 mg/kg, iv and 10 mg/kg, po after 1 hr; details: read-out: BPR
[5] = Ratio of drug level in Sprague-Dawley rat brain against plasma at 2.5 mg/kg, iv and 10 mg/kg, po after 4 hrs; details: read-out: BPR

## CN(C)[C@@H]1CCN(c2ccc(-c3coc4cc(-c5ccc(Cl)cc5)ccc4c3=O)cn2)C1.Cl
[1]
  Vd: 58 L/kg
[2]
  AUC: 859 ng·h/mL
[3]
  bioavailability: 66%
[4]
  Kp at 1 h: 9.5
[5]
  Kp at 4 h: 25
